Measured values published in patent publication US12507703B2, “Methods, devices and compositions for preserving human milk” (The Trustees of Princeton University, priority 2023, dated 2025).
Values joined by “and” are separate entries in the source; they are usually repeats but may differ in a detail not shown here. Equal values may be shown once. Where a SMILES comes first, the peptide text is derived from it.

Test system: lipase
Test: Lipase/lipolysis assay (EnzChek Lipase Substrate, quenched BODIPY-fatty acid conjugate) on stored human milk; further: test concentration or dose not given here

Row | Structure (SMILES) | Lipase (RFU)
1 | C/C1=C2/[N-][C@H]([C@H](CC(N)=O)[C@@]2(C)CCC(=O)NC[C@H](C)OP(=O)([O-])O[C@H]2[C@@H](O)[C@@H](n3cnc4cc(C)c(C)cc43)O[C@@H]2CO)[C@]2(C)N=C(/C(C)=C3N=C(/C=C4N=C1[C@@H](CCC(N)=O)C\4(C)C)[C@@H](CCC(N)=O)[C@]\3(C)CC(N)=O)[C@@H](CCC(N)=O)[C@]2(C)CC(N)=O.[CH3-].[Co+3] [Methylcobalamin] | 1187.639 RFU
2 | CC(C(=O)O)C(=O)O [Methylmalonic acid] | 883.2913 RFU
3 | COC1=CC(=O)O[C@@H](/C=C/c2ccc3c(c2)OCO3)C1 [Methylsticin] | 1261.171 RFU
4 | O=C(O)C1=CO[C@@H](O[C@@H]2O[C@H](CO)[C@@H](O)[C@H](O)[C@H]2O)[C@H]2[C@@H]1C=C[C@]2(O)CO [Monotropein] | 976.474 RFU
5 | CC(C)(O)C1Cc2cc3cc(-c4cc(O)cc(O)c4)oc3cc2O1 (stereo not drawn) [Moracin O] | 899.9132 RFU
6 | CC1(C)Oc2cc3oc(-c4cc(O)cc(O)c4)cc3cc2C[C@H]1O [Moracin P] | 751.9577 RFU
7 | NC(=O)[C@@H]1CCCN1C(=O)[C@H](Cc1ccccc1)NC(=O)[C@@H]1CCCN1C(=O)[C@@H](N)Cc1ccc(O)cc1 [Morphiceptin] (H-YPFP-NH2) | 1251.045 RFU
8 | C[C@@H]1CCCCCCCCCCCCC(=O)C1 [Muscone] | 696.5228 RFU
9 | CC(=O)c1c(C)c([N+](=O)[O-])c(C(C)(C)C)c([N+](=O)[O-])c1C [Musk ketone] | 777.5201 RFU
10 | c1cncc(C2=NCCC2)c1 [Myosmine] | 909.737 RFU
11 | C=CCc1cc(OC)c2c(c1)OCO2 [Myristicin] | 960.4671 RFU
12 | CC(=O)NCCCCNCCCN.Cl.Cl [N8-Acetylspermidine dihydrochloride] | 781.9265 RFU
13 | CC(=O)N[C@H]1[C@H](O[C@H]2[C@H](O)[C@@H](NC(C)=O)C(O)O[C@@H]2CO)O[C@H](CO)[C@@H](O[C@@H]2O[C@H](CO)[C@@H](O)[C@H](O)[C@H]2NC(C)=O)[C@@H]1O (stereo partly drawn) [N,N′,N″-Triacetylchitotriose] | 1143.03 RFU
14 | CC(=O)N[C@@H](CO)[C@@H](O)[C@H](O)[C@H](O)CO [N-Acetyl-D-Glucosaminitol] | 1055.486 RFU
15 | COc1cc(/C=C/C(=O)NCC(O)c2ccc(O)cc2)ccc1O (stereo not drawn) [N-Feruloyloctopamine] | 893.4142 RFU
16 | COc1cc(/C=C/C(=O)NCCc2c[nH]c3ccc(O)cc23)ccc1O [N-Feruloylserotonin] | 1060.876 RFU
17 | O=C(/C=C/c1ccc(O)cc1)NCCc1ccc(O)cc1 [N-p-trans-Coumaroyltyramine] | 1082.731 RFU
18 | NC(=O)c1ccc[n+]([C@@H]2O[C@H](COP(=O)([O-])OP(=O)(O)OC[C@H]3O[C@@H](n4cnc5c(N)ncnc54)[C@H](O)[C@@H]3O)[C@@H](O)[C@H]2O)c1 [NAD+] | 662.6014 RFU
19 | NC(=O)C1=CN([C@@H]2O[C@H](COP(=O)([O-])OP(=O)([O-])OC[C@H]3O[C@@H](n4cnc5c(N)ncnc54)[C@H](O)[C@@H]3O)[C@@H](O)[C@H]2O)C=CC1.[Na+].[Na+] [NADH (disodium salt)] | 996.9696 RFU
20 | NC(=O)c1ccc[n+]([C@@H]2O[C@H](COP(=O)([O-])OP(=O)(O)OC[C@H]3O[C@@H](n4cnc5c(N)ncnc54)[C@H](OP(=O)([O-])[O-])[C@@H]3O)[C@@H](O)[C@H]2O)c1.[Na+].[Na+] [NADP (disodium salt)] | 762.8961 RFU
21 | NC(=O)c1ccc[n+]([C@@H]2O[C@H](COP(=O)([O-])OP(=O)(O)OC[C@H]3O[C@@H](n4cnc5c(N)ncnc54)[C@H](OP(=O)(O)O)[C@@H]3O)[C@@H](O)[C@H]2O)c1 [NADP] | 1113.421 RFU
22 | CCN(CC)CCOC(=O)C(Cc1cccc2ccccc12)CC1CCCO1.O=C(O)C(=O)O (stereo not drawn) [Naftidrofuryl (oxalate)] | 1022.029 RFU
23 | O=C(/C=C/c1ccc(O)c(O)c1)O[C@@H]1C[C@@](O)(C(=O)O)C[C@@H](O)[C@@H]1O [Neochlorogenic acid] | 1024.869 RFU
24 | COc1ccc(-c2cc(=O)c3c(O)cc(O[C@@H]4O[C@H](CO)[C@@H](O)[C@H](O)[C@H]4O[C@@H]4O[C@@H](C)[C@H](O)[C@@H](O)[C@H]4O)cc3o2)cc1O [Neodiosmin] | 928.3945 RFU
25 | C[C@@H]1O[C@@H](O[C@H]2[C@H](Oc3cc(O)c4c(c3)O[C@H](c3ccc(O)c(O)c3)CC4=O)O[C@H](CO)[C@@H](O)[C@@H]2O)[C@H](O)[C@H](O)[C@H]1O [Neoeriocitrin] | 1015.344 RFU
26 | COc1c(CC=C(C)C)c(O)cc2oc(=O)c3c4ccc(O)cc4oc3c12 [Neoglycyrol] | 923.0229 RFU
27 | COc1ccc([C@@H]2CC(=O)c3c(O)cc(O[C@@H]4O[C@H](CO)[C@@H](O)[C@H](O)[C@H]4O[C@@H]4O[C@@H](C)[C@H](O)[C@@H](O)[C@H]4O)cc3O2)cc1O [Neohesperidin] | 774.0784 RFU

Row | Structure (SMILES) | Lipase (RFU)
28 | O=C(/C=C/c1ccc(O)cc1)c1ccc(O[C@@H]2O[C@H](CO)[C@@H](O)[C@H](O)[C@H]2O)cc1O [Neoisoliquiritin] | 789.3461 RFU
29 | O=C1C[C@@H](c2ccc(O)cc2)Oc2cc(O[C@@H]3O[C@H](CO)[C@@H](O)[C@H](O)[C@H]3O)ccc21 [Neoliquiritin] | 772.4579 RFU
30 | COC(=O)[C@H](Cc1ccccc1)NC(=O)[C@H](CC(=O)O)NCCC(C)(C)C [Neotame] | 994.7737 RFU
31 | COc1c(O)cc2oc(-c3ccc(O)c(O)c3)cc(=O)c2c1O [Nepetin] | 666.0077 RFU
32 | CC(=O)NCCCC[C@H](N)C(=O)O [Nepsilon-Acetyl-L-lysine] | 1188.891 RFU
33 | C[C@@H]1O[C@@H](OC[C@H]2O[C@@H](Oc3c(-c4ccc(O)cc4)oc4cc(O)cc(O)c4c3=O)[C@H](O)[C@@H](O)[C@@H]2O)[C@H](O)[C@H](O)[C@H]1O [Nicotiflorin] | 810.1075 RFU
34 | NC(=O)c1ccc[n+]([C@@H]2O[C@H](CO)[C@@H](O)[C@H]2O)c1.[Cl-] [Nicotinamide riboside (chloride)] | 991.823 RFU
35 | N[C@@H](CCC(=O)N[C@@H](CSN=O)C(=O)NCC(=O)O)C(=O)O [Nitrosoglutathione] | 688.3783 RFU
36 | CC(C)(O)[C@H]1Cc2cc3ccc(=O)oc3cc2O1 [Nodakenetin] | 882.2828 RFU
37 | CC(=O)O[C@H]1CC(=O)OC(C)(C)[C@@H]2CC(=O)[C@]3(C)[C@H](CC[C@@]4(C)[C@H](c5ccoc5)OC(=O)[C@H]5O[C@]543)[C@@]12C [Nomilin] | 989.5541 RFU
38 | CCCCCCCCC(=O)NCc1ccc(O)c(OC)c1 [Nonivamide] | 911.9923 RFU and 1070.28 RFU
39 | c1ccc2c(c1)[nH]c1cnccc12 [Norharmane] | 960.1337 RFU
40 | COc1cc2c(cc1O)C[C@@H]1NCCc3cc(OC)c(O)c-2c31 [Norisoboldine] | 812.7907 RFU
41 | CC(C)=CCC[C@](C)(O[C@@H]1O[C@H](CO[C@@H]2O[C@H](CO)[C@@H](O)[C@H](O)[C@H]2O)[C@@H](O)[C@H](O)[C@H]1O)[C@H]1CC[C@]2(C)[C@@H]1[C@H](O)C[C@@H]1[C@@]3(C)CC[C@H](O[C@@H]4O[C@H](CO)[C@@H](O)[C@H](O)[C@H]4O[C@@H]4O[C@H](CO)[C@@H](O)[C@H](O)[C@H]4O[C@@H]4OC[C@@H](O)[C@H](O)[C@H]4O)C(C)(C)[C@@H]3CC[C@]12C [Notoginsenoside Fa] | 1075.493 RFU
42 | CC(C)=CCC[C@](C)(O[C@@H]1O[C@H](CO[C@@H]2OC[C@@H](O)[C@H](O)[C@H]2O)[C@@H](O)[C@H](O)[C@H]1O)[C@H]1CC[C@]2(C)[C@@H]1[C@H](O)C[C@@H]1[C@@]3(C)CC[C@H](O[C@@H]4O[C@H](CO)[C@@H](O)[C@H](O)[C@H]4O[C@@H]4O[C@H](CO)[C@@H](O)[C@H](O)[C@H]4O[C@@H]4OC[C@@H](O)[C@H](O)[C@H]4O)C(C)(C)[C@@H]3CC[C@]12C [Notoginsenoside Fc] | 1131.911 RFU
43 | CC(C)=CCC[C@](C)(O[C@@H]1O[C@H](CO)[C@@H](O)[C@H](O)[C@H]1O)[C@H]1CC[C@]2(C)[C@@H]1[C@H](O)C[C@@H]1[C@@]3(C)CC[C@H](O)C(C)(C)[C@@H]3[C@@H](O[C@@H]3O[C@H](CO)[C@@H](O)[C@H](O)[C@H]3O[C@@H]3OC[C@@H](O)[C@H](O)[C@H]3O)C[C@]12C [Notoginsenoside R1] | 899.6021 RFU
44 | CC(C)=CCC[C@](C)(O)[C@H]1CC[C@]2(C)[C@@H]1[C@H](O)C[C@@H]1[C@@]3(C)CC[C@H](O)C(C)(C)[C@@H]3[C@@H](O[C@@H]3O[C@H](CO)[C@@H](O)[C@H](O)[C@H]3O[C@@H]3OC[C@@H](O)[C@H](O)[C@H]3O)C[C@]12C [Notoginsenoside R2] | 955.4855 RFU
45 | Cn1cc(C(N)=O)ccc1=O [Nudifloramide] | 993.1021 RFU
46 | C[N+](C)(C)CCCC[C@H](N)C(=O)O [Nε,Nε,Nε-Trimethyllysine (chloride)] | 1143.924 RFU
47 | CC(C(=O)c1ccc(O)cc1O)c1ccc(O)cc1 (stereo not drawn) [O-Desmethylangolensin] | 864.3847 RFU
48 | NCCOP(=O)(O)O [O-Phosphoryl-Ethanolamine] | 1247.866 RFU
49 | CC(CCC1(O)OC2CC3C4CCC5CC(OC6OC(CO)C(O)C(O)C6OC6OC(CO)C(O)C(O)C6O)CCC5(C)C4CCC3(C)C2C1C)COC1OC(CO)C(O)C(O)C1O (stereo not drawn) [Officinalisinin I] | 937.9671 RFU
50 | CCCCCCCC/C=C\CCCCCCCC(=O)O[C@H](CC(=O)[O-])C[N+](C)(C)C [Oleoylcarnitine] | 870.8673 RFU
51 | O=c1cc(-c2ccc(O)c(O)c2)oc2c([C@@H]3O[C@H](CO)[C@@H](O)[C@H](O)[C@H]3O)c(O)cc(O)c12 [Orientin] | 715.9231 RFU
52 | CCCCCCCCCCC[C@@H](C[C@@H]1OC(=O)[C@H]1CCCCCC)OC(=O)[C@H](CC(C)C)NC=O [Orlistat, reference compound] | 234.506 RFU
53 | CC(C)=CCc1c(O)ccc2ccc(=O)oc12 [Osthenol] | 798.6222 RFU
54 | C[C@@H]1O[C@@H](O[C@H]2C[C@@H](O)[C@]3(CO)[C@H]4[C@H](O)C[C@]5(C)[C@@H](C6=CC(=O)OC6)CC[C@]5(O)[C@@H]4CC[C@]3(O)C2)[C@H](O)[C@H](O)[C@H]1O.O.O.O.O.O.O.O.O [Ouabain (Octahydrate)] | 901.7077 RFU
